Experimental data reported in patent US8207211B2, “Photosensitizers for targeted photodynamic therapy” (The General Hospital Corporation, priority 2005, dated 2012).

Legend:
S. aureus = test: Photodynamic inactivation (PDI), CFU survival, 405-nm light (Example 8); format: cell-based, Staphylococcus aureus
Excerpt: (§1) Four microbial species were used in this study. Briefly, Escherichia coli was purchased from ATCC (ATCC #25922), Pseudomonas aeruginosa, two clinical isolates, were obtained; UCBP PA 14 from L. Rahme (Massachusetts General Hospital) and PA 767K from Kim Lewis (Tufts University), slime deficient mutant of Staphylococcus aureus was obtained from Gerald B Pier (Channing Laboratories). Yeast strain Candida albicans was purchased from ATCC (ATCC #18804). Exponential cultures obtained by reculturing stationary overnight cultures were used for all experiments. Bacteria were grown at 37° C. in BHI broth to a cell density of 10^8 cells per mL. C. albicans was grown 37° C. in YM medium to 10^7 cells/mL.
(§2) Six fullerene derivatives (NI1-3 and CI1-3) were evaluated. […] Concentration of fullerene derivatives used in the experiments varied between 1 and 100 μM.
Fullerene derivatives were mixed with microbial suspensions and incubated in the dark at room temperature for 10 minutes. Excess fullerenes were either washed out of, or left in, the suspensions before illumination. Aliquots of 100 μL were placed on three well hanging drop slides and illuminated with either a 405-nm laser (Nichia Chemical Industries) at an irradiance of 100 mW/cm^2, or with white light at room temperature. White light was 400-700 nm Gaussian distribution from LumaCare™ lamp with filtered liquid light guide, as described above.
During illumination, aliquots of 20 μL were taken to determine the colony-forming units. The contents of the wells were mixed before sampling. The aliquots were serially diluted 10-fold in PBS without Ca^++/Mg^++ to give dilutions of 10^−1−10^−6 times the original concentrations, and were streaked horizontally on square BHI agar plates. Plates were incubated at 37° C. overnight. Colonies were counted and survival fraction was determined as percent of survival compared to control. Microbial suspensions incubated with fullerene derivatives in DMSO in the absence of light and bacteria illuminated in the absence of fullerene derivatives were used as controls. […]

C. albicans [1] = test: as above; format: cell-based, Candida albicans; details: 10-20 μM, 16 J/cm^2 of 405-nm light
Excerpt: as §1, §2
Fullerene derivatives were mixed with microbial suspensions and incubated in the dark at room temperature for 10 minutes. Excess fullerenes were either washed out of, or left in, the suspensions before illumination. […]
During illumination, aliquots of 20 μL were taken to determine the colony-forming units. […] Colonies were counted and survival fraction was determined as percent of survival compared to control. […]

E. coli = test: Photodynamic inactivation (PDI), CFU survival, white light (red light for TBO); format: cell-based, Escherichia coli; details: 10 μM
Method: (§3) Staphylococcus aureus (ATCC #35556), Escherichia coli (ATCC #25922), and Pseudomonas aeruginosa (ATCC #BAA-47; PAO1) were cultured in brain-heart infusion (BHI) broth (Difco, BD Diagnosttic Systems, Sparks, Md.) at 37° C. in aerobic conditions in a shaker at 150 rpm. Candida albicans (ATCC #18804) is grown in YM broth (Difco). Exponential cultures obtained by reculturing stationary overnight precultures were used for experiments.
(§4) E. coli, P. aeruginosa, and S. aureus are grown in fresh medium for approximately 1 hr to a density of about 10^8 cells/ml; the OD values at 650 nm are 0.6, 0.8, and 0.8, respectively. C. albicans is grown for approximately 4 hr to an approximate density of 10^8 cells/ml, corresponding to an OD of 6 at 650 nm (measured at 10-fold dilution). Cells were used for experiments in the mid-log growth phase.
(§5) A noncoherent lamp with filtered liquid light guides, e.g., a LumaCare™ LC122 lamp (MBG Technologies, Inc., Newport Beach, Calif.) was used to provide illumination of PS. More specifically, for illumination of fullerenes, a broad-band white light band pass filter (400-700 nm) was used, whereas for TBO, a band pass filter at 620-650 nm was used. The lamp was adjusted to give a uniform spot of about 4 cm diameter with an irradiance of 200 mW/cm^2, as measured with a power meter, e.g., a model DMM 199 meter with 201 Standard head (Coherent, Santa Clara, Calif.).
(§6) Typically, derivatized fullerenes prepared as described above are dissolved in DMSO to provide stock solutions having final concentrations of about 5 mM. […] All stock solutions were stored in the dark at room temperature.
(§7) In some experiments, for example in studies described in Examples below, suspensions of S. aureus cells (10^8 per ml) were incubated with derivatized fullerenes such as NI-1-3 and CI1-3 at a concentration of 100 μM in PBS at room temperature for 10 min. In other experiments, the bacterial suspension was centrifuged (4000×g for 10 min) after incubation and resuspended in fresh PBS before illumination; the latter procedure was referred to herein as a “wash.” E. coli, P. aeruginosa, and C. albicans were used at concentrations of about 10^8 cells per ml.
(§8) Illumination was carried out from above on microbial cell suspensions in wells of a 24-well plate. Aliquots were removed at times corresponding to the delivery of calculated fluences of light, and were serially diluted in PBS and streaked on square BHI or YM agar plates according to the method of Jett et al. (Jett, B. D., Hatter, K. L., Huycke, M. M., and Gilmore, M. S. (1997). Simplified agar plate method for quantifying viable bacteria. Biotechniques 23, 648-650). Survival fractions were calculated with reference to cells incubated in PBS alone. Values on killing curves at 0 J/cm^2 represent the dark toxicity of the fullerenes or other PS tested. Control cells were treated with light and no PS and also analyzed for viability.

P. aeruginosa = test: as above; format: cell-based, Pseudomonas aeruginosa; details: 10 μM, 10 min, white light up to 50 J/cm^2
Method: as §3, §4, §5, §6, §7, §8

C. albicans [2] = test: as above; format: cell-based, Candida albicans; details: 10 μM, 10 min
Method: as §3, §4, §5, §6, §7, §8

## C[N+]1(C)Cc2c(c3c4ccc5c6ccc7c8ccc9c%10c%11c%12c(c2c2c3c3c4c5c4c6c7c5c8c9c%11c6c(c%122)c3c4c56)C2C[N+](C)(C)CC%102)C1 (stereo not shown) [CI2]
S. aureus; 100 μM, 10 min, 405 nm light 0-200 J/cm^2
  PDI of S. aureus: most potent
S. aureus; 1-μM, 8 J/cm^2, 405 nm light
  killing of S. aureus: 6 logs
S. aureus; S. aureus, 1 μM and 8 J/cm^2 versus 100 μM screen
  potency relative to the other fullerene derivatives: approximately 1000 times
C. albicans [1]
  killing of C. albicans: high levels of killing
E. coli; 10 min, 10% FBS, with a wash, white light
  change of E. coli killing in the presence of serum versus no serum: about 1 log
E. coli; 10 min, white light up to 50 J/cm^2
  PDT activity against E. coli: effectively killed
E. coli; with a wash, 2 J/cm^2 white light
  killing of E. coli: 4 logs
P. aeruginosa
  PDT activity against P. aeruginosa: effectively killed
C. albicans [2]; white light up to 50 J/cm^2
  PDT activity against C. albicans: effectively killed
C. albicans [2]; with a wash, white light
  relative effectiveness in killing C. albicans: much better than CI1
